Source: ChEMBL document CHEMBL4138123, “Design, synthesis and biological evaluation of novel pyrazolochalcones as potential modulators of PI3K/Akt/mTOR pathway and inducers of apoptosis in breast cancer cells” (Eur J Med Chem, 2017)

Assays:
Type in all cases: functional
HCT-116 [1] = experiment: Cytotoxicity against human HCT116 cells assessed as growth inhibition after 48 hrs by sulforhodamine B assay; details: HCT-116, 48 h
HCT-15 = experiment: Cytotoxicity against human HCT15 cells assessed as growth inhibition after 48 hrs by sulforhodamine B assay; details: HCT-15, 48 h
SK-MEL-28 = experiment: Cytotoxicity against human SK-MEL-28 cells assessed as growth inhibition after 48 hrs by sulforhodamine B assay; details: SK-MEL-28, 48 h
UACC-62 [2] = experiment: Cytotoxicity against human UACC62 cells assessed as cell growth at 0.01 uM after 48 hrs by sulforhodamine B assay relative to control; details: UACC-62, 48 h, read-out: Activity
NCI-H322M [3] = experiment: Cytotoxicity against human NCI-H322M cells assessed as cell growth at 0.01 uM after 48 hrs by sulforhodamine B assay relative to control; details: read-out: Activity
K562 = experiment: Cytotoxicity against human K562 cells assessed as cell growth at 0.01 uM after 48 hrs by sulforhodamine B assay relative to control; details: K562, 48 h, read-out: Activity
PC-3 [4] = experiment: Cytotoxicity against human PC3 cells assessed as cell growth at 0.01 uM after 48 hrs by sulforhodamine B assay relative to control; details: PC-3, 48 h, read-out: Activity
NCI-H23 = experiment: Cytotoxicity against human NCI-H23 cells assessed as cell growth at 0.1 uM after 48 hrs by sulforhodamine B assay relative to control; details: NCI-H23, 48 h, read-out: Activity
NCI-H322M [5] = experiment: Cytotoxicity against human NCI-H322M cells assessed as cell growth at 0.1 uM after 48 hrs by sulforhodamine B assay relative to control; details: read-out: Activity
HCC 2998 = experiment: Cytotoxicity against human HCC2998 cells assessed as cell growth at 0.1 uM after 48 hrs by sulforhodamine B assay relative to control; details: HCC 2998, 48 h, read-out: Activity
SF-539 = experiment: Cytotoxicity against human SF539 cells assessed as cell growth at 0.1 uM after 48 hrs by sulforhodamine B assay relative to control; details: SF-539, 48 h, read-out: Activity
OVCAR-4 [6] = experiment: Cytotoxicity against human OVCAR4 cells assessed as cell growth at 0.1 uM after 48 hrs by sulforhodamine B assay relative to control; details: OVCAR-4, 48 h, read-out: Activity
SN12C = experiment: Cytotoxicity against human SN12C cells assessed as cell growth at 0.1 uM after 48 hrs by sulforhodamine B assay relative to control; details: read-out: Activity
DU-145 [7] = experiment: Cytotoxicity against human DU145 cells assessed as cell growth at 0.1 uM after 48 hrs by sulforhodamine B assay relative to control; details: DU-145, 48 h, read-out: Activity
HCT-116 [8] = experiment: Cytotoxicity against human HCT116 cells assessed as cell growth at 1 uM after 48 hrs by sulforhodamine B assay relative to control; details: HCT-116, 48 h, read-out: Activity
OVCAR-8 [9] = experiment: Cytotoxicity against human OVCAR8 cells assessed as cell growth at 1 uM after 48 hrs by sulforhodamine B assay relative to control; details: OVCAR-8, 48 h, read-out: Activity
NCI/ADR-RES = experiment: Cytotoxicity against human NCI/ADR-RES cells assessed as cell growth at 1 uM after 48 hrs by sulforhodamine B assay relative to control; details: read-out: Activity
SK-OV-3 = experiment: Cytotoxicity against human SKOV3 cells assessed as cell growth at 1 uM after 48 hrs by sulforhodamine B assay relative to control; details: SK-OV-3, 48 h, read-out: Activity
TK-10 = experiment: Cytotoxicity against human TK10 cells assessed as cell growth at 1 uM after 48 hrs by sulforhodamine B assay relative to control; details: TK-10, 48 h, read-out: Activity
PC-3 [10] = experiment: Cytotoxicity against human PC3 cells assessed as cell growth at 1 uM after 48 hrs by sulforhodamine B assay relative to control; details: PC-3, 48 h, read-out: Activity
CCRF-CEM = experiment: Cytotoxicity against human CCRF-CEM cells assessed as cell growth at 10 uM after 48 hrs by sulforhodamine B assay relative to control; details: read-out: Activity
MOLT-4 = experiment: Cytotoxicity against human MOLT4 cells assessed as cell growth at 10 uM after 48 hrs by sulforhodamine B assay relative to control; details: MOLT-4, 48 h, read-out: Activity
NCI-H226 = experiment: Cytotoxicity against human NCI-H226 cells assessed as cell growth at 10 uM after 48 hrs by sulforhodamine B assay relative to control; details: NCI-H226, 48 h, read-out: Activity
MDA-MB-435 = experiment: Cytotoxicity against human MDA-MB-435 cells assessed as cell growth at 10 uM after 48 hrs by sulforhodamine B assay relative to control; details: MDA-MB-435, 48 h, read-out: Activity
SK-MEL-5 = experiment: Cytotoxicity against human SK-MEL-5 cells assessed as cell growth at 10 uM after 48 hrs by sulforhodamine B assay relative to control; details: SK-MEL-5, 48 h, read-out: Activity
UACC-62 [11] = experiment: Cytotoxicity against human UACC62 cells assessed as cell growth at 10 uM after 48 hrs by sulforhodamine B assay relative to control; details: UACC-62, 48 h, read-out: Activity
RXF 393 = experiment: Cytotoxicity against human RXF393 cells assessed as cell growth at 10 uM after 48 hrs by sulforhodamine B assay relative to control; details: RXF 393, 48 h, read-out: Activity
MDA-MB-231 = experiment: Cytotoxicity against human MDA-MB-231 cells assessed as cell growth at 10 uM after 48 hrs by sulforhodamine B assay relative to control; details: MDA-MB-231, 48 h, read-out: Activity
HL-60(TB) = experiment: Cytotoxicity against human HL-60(TB) cells assessed as cell growth at 100 uM after 48 hrs by sulforhodamine B assay relative to control; details: HL-60, 48 h, read-out: Activity
RPMI-8226 = experiment: Cytotoxicity against human RPMI8226 cells assessed as cell growth at 100 uM after 48 hrs by sulforhodamine B assay relative to control; details: RPMI-8226, 48 h, read-out: Activity
OVCAR-4 [12] = experiment: Cytotoxicity against human OVCAR4 cells assessed as cell growth at 100 uM after 48 hrs by sulforhodamine B assay relative to control; details: OVCAR-4, 48 h, read-out: Activity
OVCAR-8 [13] = experiment: Cytotoxicity against human OVCAR8 cells assessed as cell growth at 100 uM after 48 hrs by sulforhodamine B assay relative to control; details: OVCAR-8, 48 h, read-out: Activity
786-0 = experiment: Cytotoxicity against human 786-0 cells assessed as cell growth at 100 uM after 48 hrs by sulforhodamine B assay relative to control; details: 786-0, 48 h, read-out: Activity
DU-145 [14] = experiment: Cytotoxicity against human DU145 cells assessed as cell growth at 100 uM after 48 hrs by sulforhodamine B assay relative to control; details: DU-145, 48 h, read-out: Activity
MDA-MB-468 = experiment: Cytotoxicity against human MDA-MB-468 cells assessed as cell growth at 100 uM after 48 hrs by sulforhodamine B assay relative to control; details: MDA-MB-468, 48 h, read-out: Activity

## COc1ccc(C(=O)/C=C/c2cc(-c3ccc(OC)c(OC)c3)n[nH]2)cc1OC
HCT-116 [1]
  GI50: 0.369 µM
  TGI: 1.71 µM
HCT-15
  GI50: 1.09 µM
  TGI: 5.39 µM
SK-MEL-28
  GI50: 1.82 µM
  TGI: 4.82 µM
UACC-62 [2]
  growth at 0.01 µM: 95%
NCI-H322M [3]
  growth at 0.01 µM: 104%
K562
  growth at 0.01 µM: 101%
PC-3 [4]
  growth at 0.01 µM: 99%
NCI-H23
  growth at 0.1 µM: 103%
NCI-H322M [5]
  growth at 0.1 µM: 105%
HCC 2998
  growth at 0.1 µM: 101%
SF-539
  growth at 0.1 µM: 89%
OVCAR-4 [6]
  growth at 0.1 µM: 86%
SN12C
  growth at 0.1 µM: 98%
DU-145 [7]
  growth at 0.1 µM: 105%
HCT-116 [8]
  growth at 1 µM: 21%
OVCAR-8 [9]
  growth at 1 µM: 80%
NCI/ADR-RES
  growth at 1 µM: 89%
SK-OV-3
  growth at 1 µM: 90%
TK-10
  growth at 1 µM: 106%
PC-3 [10]
  growth at 1 µM: 69%
CCRF-CEM
  growth at 10 µM: -5%
MOLT-4
  growth at 10 µM: 5%
NCI-H226
  growth at 10 µM: -46%
MDA-MB-435
  growth at 10 µM: -69%
SK-MEL-5
  growth at 10 µM: -97%
UACC-62 [11]
  growth at 10 µM: -57%
RXF 393
  growth at 10 µM: -84%
MDA-MB-231
  growth at 10 µM: -18%
HL-60(TB)
  growth at 100 µM: 1%
RPMI-8226
  growth at 100 µM: -38%
OVCAR-4 [12]
  growth at 100 µM: -40%
OVCAR-8 [13]
  growth at 100 µM: -15%
786-0
  growth at 100 µM: -32%
DU-145 [14]
  growth at 100 µM: -100%
MDA-MB-468
  growth at 100 µM: -64%

## COc1ccc(-c2cc(/C=C/C(=O)c3ccc(N)cc3)[nH]n2)cc1OC
HCT-116 [1]
  GI50: 1.71 µM
  LC50: 7.19 µM
  TGI: 3.51 µM
HCT-15
  GI50: 1.7 µM
  LC50: 33 µM
  TGI: 5.37 µM
SK-MEL-28
  GI50: 2.14 µM
  LC50: 21.1 µM
  TGI: 5.66 µM
UACC-62 [2]
  growth at 0.01 µM: 99%
NCI-H322M [3]
  growth at 0.01 µM: 96%
K562
  growth at 0.01 µM: 99%
PC-3 [4]
  growth at 0.01 µM: 95%
NCI-H23
  growth at 0.1 µM: 103%
NCI-H322M [5]
  growth at 0.1 µM: 102%
HCC 2998
  growth at 0.1 µM: 100%
SF-539
  growth at 0.1 µM: 97%
OVCAR-4 [6]
  growth at 0.1 µM: 90%
SN12C
  growth at 0.1 µM: 99%
DU-145 [7]
  growth at 0.1 µM: 110%
HCT-116 [8]
  growth at 1 µM: 87%
OVCAR-8 [9]
  growth at 1 µM: 93%
NCI/ADR-RES
  growth at 1 µM: 99%
SK-OV-3
  growth at 1 µM: 97%
TK-10
  growth at 1 µM: 107%
PC-3 [10]
  growth at 1 µM: 89%
CCRF-CEM
  growth at 10 µM: -8%
MOLT-4
  growth at 10 µM: 6%
NCI-H226
  growth at 10 µM: -13%
MDA-MB-435
  growth at 10 µM: -15%
SK-MEL-5
  growth at 10 µM: 6%
UACC-62 [11]
  growth at 10 µM: 3%
RXF 393
  growth at 10 µM: -39%
MDA-MB-231
  growth at 10 µM: 24%
HL-60(TB)
  growth at 100 µM: 3%
RPMI-8226
  growth at 100 µM: -40%
OVCAR-4 [12]
  growth at 100 µM: -98%
OVCAR-8 [13]
  growth at 100 µM: -86%
786-0
  growth at 100 µM: -97%
DU-145 [14]
  growth at 100 µM: -100%
MDA-MB-468
  growth at 100 µM: -73%

## COc1cc2c(cc1OC)C(=O)/C(=C/c1cc(-c3ccc4c(c3)OCO4)n[nH]1)C2
HCT-116 [1]
  GI50: 1.03 µM
  LC50: 6.31 µM
  TGI: 2.54 µM
HCT-15
  GI50: 1.12 µM
  LC50: 7.07 µM
  TGI: 2.81 µM
SK-MEL-28
  GI50: 1.89 µM
  LC50: 6.09 µM
  TGI: 3.4 µM
UACC-62 [2]
  growth at 0.01 µM: 100%
NCI-H322M [3]
  growth at 0.01 µM: 102%
K562
  growth at 0.01 µM: 97%
PC-3 [4]
  growth at 0.01 µM: 94%
NCI-H23
  growth at 0.1 µM: 93%
NCI-H322M [5]
  growth at 0.1 µM: 92%
HCC 2998
  growth at 0.1 µM: 97%
SF-539
  growth at 0.1 µM: 92%
OVCAR-4 [6]
  growth at 0.1 µM: 98%
SN12C
  growth at 0.1 µM: 93%
DU-145 [7]
  growth at 0.1 µM: 101%
HCT-116 [8]
  growth at 1 µM: 51%
OVCAR-8 [9]
  growth at 1 µM: 84%
NCI/ADR-RES
  growth at 1 µM: 86%
SK-OV-3
  growth at 1 µM: 109%
TK-10
  growth at 1 µM: 106%
PC-3 [10]
  growth at 1 µM: 65%
CCRF-CEM
  growth at 10 µM: -44%
MOLT-4
  growth at 10 µM: -18%
NCI-H226
  growth at 10 µM: -72%
MDA-MB-435
  growth at 10 µM: -88%
SK-MEL-5
  growth at 10 µM: -98%
UACC-62 [11]
  growth at 10 µM: -96%
RXF 393
  growth at 10 µM: -78%
MDA-MB-231
  growth at 10 µM: -87%
HL-60(TB)
  growth at 100 µM: -36%
RPMI-8226
  growth at 100 µM: -54%
OVCAR-4 [12]
  growth at 100 µM: -98%
OVCAR-8 [13]
  growth at 100 µM: -94%
786-0
  growth at 100 µM: -93%
DU-145 [14]
  growth at 100 µM: -88%
MDA-MB-468
  growth at 100 µM: -86%
